The values that follow come from patent US10098901B2, “Derivatives of oxazaphosphorines and therapeutic uses thereof” (INSTITUT GUSTAVE ROUSSY, priority 2014, dated 2018).

The structures appear in SMILES notation. Where two headings read alike, the source gives them in different places.

A word on the IC50: it is the concentration at which inhibition is half-maximal.

The test system of data set [1] is RMS-1 cell line. The experiment in a line: cells. The conditions noted are these: for IC50: read-out: In vitro Activity (IC50) RMS-1. The method, then:
(§1) The experiments were conducted in the absence of cytochrome.
(§2) The cells were seeded in 96-well plates at optimal cell density determined previously and incubated with 100 μL of DMEM or RPMI containing 10% of FBS and 100 U/mL penicillin and 100 μg/mL streptomycin at 37° C., 5% CO2 in moist atmosphere. After 24 h, the cells were treated with 100 μL of the different pre-activated prodrugs at different concentrations:
(§3) Depending on the cell line, 2 to 5 h incubation are needed to obtain the optimum optical density which was measured at 490 nm wavelength using a microplate reader (EL808, Biotek Instrument). Untreated cells were used as control. Each compound concentration was tested in six replicates.

The test system of data set [2] is A673 (human Ewing Sarcoma cell line). The experiment in a line: cells. The conditions noted are these: for IC50: Homo sapiens, read-out: In vitro Activity (IC50) A673. The method, then: as §1, §2, §3
Data set [3] in a line: Physico-chemical characterisation of nano-assemblies (DLS, Zeta potential, drug loading). Type of data set: physicochemical. The settings on record: nanoprecipitation acetone/water, no surfactant. The method, then: Nano-assemblies (NAs) from prodrugs Geranyloxy-IFO (3b) at a concentration of 2 mg/mL and 5 mg/ml, were prepared in a single step by nanoprecipitation of solution (8 mg/mL in acetone) in milliQ® water (ratio acetone:water 1:4; v:v). Formation of NAs occurred immediately without the use of any surfactant. The organic solvent was then evaporated at room temperature under vacuum using a Rotavapor® and the organic solvent-free colloidal dispersions were stored at 4° C.
The hydrodynamic diameter of the NAs was measured at 20° C. by Dynamic Light scattering using a Nanosizer ZS (Malvern Instrument Ltd, France). An amount of 20 μL of the suspension was diluted in 980 μL of Milli-Q water. The results give the mean hydrodynamic diameter of the dispersed NAs from three independent series of ten measurements. The standard deviation and the polydispersity index were also given.
The Zeta (ξ) potential was also determined by dilution of 20 μL of the suspension in 980 μL of a […] solution using a Nanosizer ZS (Malvern Instrument Ltd, France).

For data set [4], the system named is human rhabdomyosarcoma (RD cell line) xenografted in nude mice. Nature of the data set: Anti-tumor effect in vivo, RD xenograft. The conditions noted are these: intravenous. The method, then:
In vivo cytotoxic efficacy was evaluated first on a model of human rhabdomyosarcoma xenografted in nude mice. The model used is RD cell line. The cells were first amplified in culture and counted. Cells were injected subcutaneously in both flanks of each mouse.
The administration was performed by intravenous route at day 0.

A short description of data set [5]: In vitro release of 4-HO-IFO in mouse plasma. The conditions noted are these: 37° C., without activation by cytochromes. Type of data set: in vitro ADME.
For data set [6] the following is noted: squalenoyl IFO derivatives described in WO2012/076824; cited from earlier work.
The subject of data set [7] is A673 (human Ewing Sarcoma cell line). The conditions noted are these: comparison values for squalenoyl derivatives (WO2012/076824); cited from earlier work.
For data set [8], the system named is RMS-1 cell line. The conditions noted are these: comparison values for squalenoyl derivatives (WO2012/076824); cited from earlier work.
The mark [9] stands for this setting: RMS-1, 72 h, absence of cytochrome.
Where [10] appears, read: A673, 72 h, absence of cytochrome.

For `CC(C)CCCC(C)CCO` (stereo not drawn) [3,7-dimethyloctanol], the “cytotoxicity, in words” value (in the data set with RMS-1 cell line [1]; in data set [2]) was “The same results were observed” throughout. The IC50 is over 50 µM with RMS-1 cell line [1] (RMS1, 72 h) and over 200 µM in data set [2] (A673, 72 h).

In the case of `CC(C)CCCC(C)CCOC1CCOP(=O)(NCCCl)N1CCCl` (stereo not drawn) [13,17-Dimethyloctyloxy-IFO (3c), 13,17-Dimethyloctyloxy-IFO], the IC50 in the data set on RMS-1 cell line [1] (RMS1, 72 h) was over 50 µM; in the data set with RMS-1 cell line [1] (RMS1, 96 h), 11.3 ± 5.8 µM; in data set [2] (A673, 72 h), over 200 µM; in data set [2] (A673, 96 h), 24.5 ± 2.1 µM. Besides, the “cytotoxicity, in words” value (in the data set with RMS-1 cell line [1] (setting [9]); in data set [2] (setting [10])) was “did not exhibit significant cytotoxicity” throughout. In data set [3], the “formation of nanoparticles (self-assembly)” value (from here on “formation of nanoparticles”) is recorded as “did not provide any suspension of nanoparticles”.

On to `CC(C)=CCC/C(C)=C/CO` [Geraniol, (trans)-3,7-dimethyl-2,6-octadien-1-ol], for which the “cytotoxicity, in words” value (in the data set with RMS-1 cell line [1]; in data set [2]) was “The same results were observed” each time. The concentration for half-maximal inhibition (IC50) in the data set with RMS-1 cell line [1] (RMS1, 72 h) is over 50 µM; in data set [2] (A673, 72 h) it was over 200 µM. In data set [4] (single dose 59 mg/kg, day 0), the “tumor volume growth (Vtjx/Vtj0)” value was “No tumor growth inhibition”.

Take `CC(C)=CCC/C(C)=C/COC1CCOP(=O)(NCCCl)N1CCCl` (stereo not drawn) [Geranyloxy-IFO (bulk) (3b), Geranyloxy-IFO]: the IC50 in the data set on RMS-1 cell line [1] (RMS1, 72 h) is 9.3 ± 4.2 µM; in data set [2] (A673, 72 h), 25.3 ± 1.5 µM. Moreover, the “cytotoxicity, in words” value (with RMS-1 cell line [1] (setting [9]); in data set [2] (setting [10])) was “significant cytotoxicity” each time. Also, the “formation of nanoparticles” value in data set [3] (listed as Geranyloxy-IFO) was “gave satisfactory NAs”; in data set [3] (listed as geranyloxy-IFO), “able to self-organize into nanoparticles”. Moreover, the “release of 4-HO-IFO, in words” value in data set [5] is “released”. Moreover, the “tumor volume growth (Vtjx/Vtj0)” value is listed as “showed antitumor activity” in data set [4] (single dose 158 mg/kg (equivalent to 100 mg/kg of IFO), day 0, free form, listed as Geranyloxy-IFO) and “prevent the tumor growth” in data set [4] (single dose 158 mg/kg (equivalent to 100 mg/kg of IFO), day 0, free form, listed as geranyloxy-IFO).

As for `O=P1(NCCCl)OCCCN1CCCl` (stereo not drawn) [IFO, ifosfamide], the “cytotoxicity, in words” value (in the data set on RMS-1 cell line [1]; in data set [2]) was “did not exhibit significant cytotoxicity” each time. Further, the half-inhibitory concentration (IC50) in the data set on RMS-1 cell line [1] (RMS1, 72 h) was over 50 µM; in data set [2] (A673, 72 h), over 200 µM. Further, the “tumor volume growth (Vtjx/Vtj0)” value in data set [4] (single dose 300 mg/kg, day 0) is recorded as “antitumor activity”.

As for `CCCCCO` [Pentanol, pentanol], the “cytotoxicity, in words” value (in the data set on RMS-1 cell line [1]; in data set [2]) was “The same results were observed” throughout. Further, the IC50 was over 500 µM in the data set with RMS-1 cell line [1] (RMS1, 72 h) and over 200 µM in data set [2] (A673, 72 h).

Regarding `CCCCCOC1CCOP(=O)(NCCCl)N1CCCl` (stereo not drawn) [Pentyloxy-IFO (3a), Pentyloxy-IFO], the IC50 with RMS-1 cell line [1] (RMS1, 72 h) came to 5.3 ± 1.7 µM; in data set [2] (A673, 72 h) it was 17.7 ± 2.3 µM. Besides, in data set [3], the “formation of nanoparticles” value is recorded as “did not provide any suspension of nanoparticles”.

Consider `CC(C)=CCC/C(C)=C/CC/C(C)=C/CC/C=C(\C)CC/C=C(\C)CCCOC1CCOP(=O)(NCCCl)N1CCCl` (stereo not drawn) [SQ-IFO], for which, in data set [6], the drug loading is 40.4% and the mean diameter was 147 nm. The IC50 in data set [7] was 22 ± 5 µM. Also, the IC50 in the data set on RMS-1 cell line [8] was 11.4 ± 5 µM.

On to `CC(C)=CCC/C(C)=C/CC/C(C)=C/CC/C=C(\C)CC/C=C(\C)CCC(=O)NCCSC1CCOP(=O)(NCCCl)N1CCCl` (stereo not drawn) [SQ-thio-IFO], for which, in data set [6], the drug loading was 36.3%. The mean diameter in data set [6] is listed as 170 nm. The IC50 was 23.2 ± 1.3 µM in data set [7] and 33 ± 1.8 µM with RMS-1 cell line [8].
